# Experimental data from PubChem BioAssay AID1963837 (Molecular Pharmacology Branch, DTP, NCI, 2024).
# System: 843126-344-R-J1-PDC complex spheroid viability
# Assay: Anticancer human tumor 843126-344-R-J1-PDC patient-derived melanoma cell line growth inhibition [POLQ]
# Conditions: for IC50: curve of first compound; for viability, T/C: stronger effect = lower value
# Procedure, shortened: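 Growth inhibition in 3D: complex spheroids (tumor PDC, HUVEC, MSC) treated with POLQ inhibitor combinations; where Cmax unknown, highest tested concentration 10 microM, except SN-38 at 1 microM.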
# [1] = second compound 0.0316 µM, first compound 0.0316 µM
# [2] = second compound 0.0316 µM, first compound 0.1 µM
# [3] = second compound 0.0316 µM, first compound 0.316 µM
# [4] = second compound 0.0316 µM, first compound 1 µM
# [5] = second compound 0.0316 µM, first compound 3.16 µM
# [6] = second compound 0.0316 µM, first compound 10 µM
# [7] = second compound 0.1 µM, first compound 0.0316 µM
# [8] = second compound 0.1 µM, first compound 0.1 µM
# [9] = second compound 0.1 µM, first compound 0.316 µM
# [10] = second compound 0.1 µM, first compound 1 µM
# [11] = second compound 0.1 µM, first compound 3.16 µM
# [12] = second compound 0.1 µM, first compound 10 µM
# [13] = second compound 0.316 µM, first compound 0.0316 µM
# [14] = second compound 0.316 µM, first compound 0.1 µM
# [15] = second compound 0.316 µM, first compound 0.316 µM
# [16] = second compound 0.316 µM, first compound 1 µM
# [17] = second compound 0.316 µM, first compound 3.16 µM
# [18] = second compound 0.316 µM, first compound 10 µM
# [19] = second compound 1 µM, first compound 0.0316 µM
# [20] = second compound 1 µM, first compound 0.1 µM
# [21] = second compound 1 µM, first compound 0.316 µM
# [22] = second compound 1 µM, first compound 1 µM
# [23] = second compound 1 µM, first compound 3.16 µM
# [24] = second compound 1 µM, first compound 10 µM
# [25] = second compound 3.16 µM, first compound 0.0316 µM
# [26] = second compound 3.16 µM, first compound 0.1 µM
# [27] = second compound 3.16 µM, first compound 0.316 µM
# [28] = second compound 3.16 µM, first compound 1 µM
# [29] = second compound 3.16 µM, first compound 3.16 µM
# [30] = second compound 3.16 µM, first compound 10 µM
# [31] = second compound 10 µM, first compound 0.0316 µM
# [32] = second compound 10 µM, first compound 0.1 µM
# [33] = second compound 10 µM, first compound 0.316 µM
# [34] = second compound 10 µM, first compound 1 µM
# [35] = second compound 10 µM, first compound 3.16 µM
# [36] = second compound 10 µM, first compound 10 µM
# 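Wherever viability, T/C is given: spheroids exposed to drugs for seven days before readout.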
structure (smiles),measurement,setting,value
COc1cc2cc(C(=O)CCC(=O)O)sc2cc1OC + Nc1ccc(C#CCN(C(=O)Cc2ncc(C(F)(F)F)cc2C(F)(F)F)c2ccc(F)cc2)nn1,IC50,second compound 0.0316 µM,> 10 µM
same,IC50,second compound 0.1 µM,> 10 µM
same,IC50,second compound 0.316 µM,> 10 µM
same,IC50,second compound 1 µM,> 10 µM
same,IC50,second compound 3.16 µM,> 10 µM
same,IC50,second compound 10 µM,> 10 µM
same,"viability, T/C",[1],84.1%
same,"viability, T/C",[2],82.5%
same,"viability, T/C",[3],81.6%
same,"viability, T/C",[4],99.8%
same,"viability, T/C",[5],90.2%
same,"viability, T/C",[6],89.2%
same,"viability, T/C",[7],77.8%
same,"viability, T/C",[8],103%
same,"viability, T/C",[9],92%
same,"viability, T/C",[10],102%
same,"viability, T/C",[11],89.9%
same,"viability, T/C",[12],107%
same,"viability, T/C",[13],96.1%
same,"viability, T/C",[14],94.2%
same,"viability, T/C",[15],104%
same,"viability, T/C",[16],96.7%
same,"viability, T/C",[17],108%
same,"viability, T/C",[18],82.3%
same,"viability, T/C",[19],96.7%
same,"viability, T/C",[20],77.7%
same,"viability, T/C",[21],93.8%
same,"viability, T/C",[22],83.2%
same,"viability, T/C",[23],90.1%
same,"viability, T/C",[24],76.8%
same,"viability, T/C",[25],96.9%
same,"viability, T/C",[26],83.7%
same,"viability, T/C",[27],89.1%
same,"viability, T/C",[28],86%
same,"viability, T/C",[29],94.7%
same,"viability, T/C",[30],91%
same,"viability, T/C",[31],77.2%
same,"viability, T/C",[32],84.3%
same,"viability, T/C",[33],92.2%
same,"viability, T/C",[34],79.1%
same,"viability, T/C",[35],92.7%
same,"viability, T/C",[36],94.1%
CCc1cc2c(N3CCc4c(cc(Cn5ccnc5)cc4-c4cn(C)nc4C(F)(F)F)C3=O)ccnc2c(OC)n1 + COC1C(OC(N)=O)C(O)C(Oc2ccc3c(O)c(NC(=O)c4ccc(O)c(CC=C(C)C)c4)c(=O)oc3c2C)OC1(C)C,IC50,second compound 0.0316 µM,> 10 µM
same,IC50,second compound 0.1 µM,8.32 µM
same,IC50,second compound 0.316 µM,> 10 µM
same,IC50,second compound 1 µM,> 10 µM
same,IC50,second compound 3.16 µM,> 10 µM
same,IC50,second compound 10 µM,> 10 µM
same,"viability, T/C",[1],94.1%
same,"viability, T/C",[2],88.3%
same,"viability, T/C",[3],87.3%
same,"viability, T/C",[4],78.4%
same,"viability, T/C",[5],62.2%
same,"viability, T/C",[6],60.8%
same,"viability, T/C",[7],82%
same,"viability, T/C",[8],99.8%
same,"viability, T/C",[9],92.2%
same,"viability, T/C",[10],70.4%
same,"viability, T/C",[11],63%
same,"viability, T/C",[12],46.5%
same,"viability, T/C",[13],99.5%
same,"viability, T/C",[14],78%
same,"viability, T/C",[15],78%
same,"viability, T/C",[16],73.1%
same,"viability, T/C",[17],76.6%
same,"viability, T/C",[18],62%
same,"viability, T/C",[19],84.5%
same,"viability, T/C",[20],93.8%
same,"viability, T/C",[21],78.2%
same,"viability, T/C",[22],80.6%
same,"viability, T/C",[23],65%
same,"viability, T/C",[24],57.2%
same,"viability, T/C",[25],78.4%
same,"viability, T/C",[26],99.7%
same,"viability, T/C",[27],87.2%
same,"viability, T/C",[28],72.6%
same,"viability, T/C",[29],67.6%
same,"viability, T/C",[30],61%
same,"viability, T/C",[31],80.8%
same,"viability, T/C",[32],79.7%
same,"viability, T/C",[33],79.5%
same,"viability, T/C",[34],78.5%
same,"viability, T/C",[35],61.7%
same,"viability, T/C",[36],66.1%
COc1cccc(OCCCN)c1-c1cc(Nc2cnc(C#N)cn2)n[nH]1 + Nc1ccc(C#CCN(C(=O)Cc2ncc(C(F)(F)F)cc2C(F)(F)F)c2ccc(F)cc2)nn1,IC50,second compound 0.0316 µM,0.0578 µM
same,IC50,second compound 0.1 µM,0.0851 µM
same,IC50,second compound 0.316 µM,0.0919 µM
same,IC50,second compound 1 µM,0.0971 µM
same,IC50,second compound 3.16 µM,0.0256 µM
same,IC50,second compound 10 µM,0.0542 µM
same,"viability, T/C","second compound 0.0316 µM, first compound 0.00316 µM",92%
same,"viability, T/C","second compound 0.0316 µM, first compound 0.01 µM",78.5%
same,"viability, T/C",[1],53.1%
same,"viability, T/C",[2],47.3%
same,"viability, T/C",[3],40%
same,"viability, T/C",[4],35.5%
same,"viability, T/C","second compound 0.1 µM, first compound 0.00316 µM",91.9%
same,"viability, T/C","second compound 0.1 µM, first compound 0.01 µM",71.2%
same,"viability, T/C",[7],53%
same,"viability, T/C",[8],53.9%
same,"viability, T/C",[9],45.1%
same,"viability, T/C",[10],32.1%
same,"viability, T/C","second compound 0.316 µM, first compound 0.00316 µM",92.9%
same,"viability, T/C","second compound 0.316 µM, first compound 0.01 µM",72.5%
same,"viability, T/C",[13],59.6%
same,"viability, T/C",[14],50%
same,"viability, T/C",[15],42.2%
same,"viability, T/C",[16],35.1%
same,"viability, T/C","second compound 1 µM, first compound 0.00316 µM",89.8%
same,"viability, T/C","second compound 1 µM, first compound 0.01 µM",72.6%
same,"viability, T/C",[19],59.6%
same,"viability, T/C",[20],49.2%
same,"viability, T/C",[21],43.8%
same,"viability, T/C",[22],29.3%
same,"viability, T/C","second compound 3.16 µM, first compound 0.00316 µM",87.2%
same,"viability, T/C","second compound 3.16 µM, first compound 0.01 µM",74.6%
same,"viability, T/C",[25],44.3%
same,"viability, T/C",[26],41.2%
same,"viability, T/C",[27],38.6%
same,"viability, T/C",[28],38.8%
same,"viability, T/C","second compound 10 µM, first compound 0.00316 µM",84.8%
same,"viability, T/C","second compound 10 µM, first compound 0.01 µM",66.8%
same,"viability, T/C",[31],51.9%
same,"viability, T/C",[32],45.8%
same,"viability, T/C",[33],42.8%
same,"viability, T/C",[34],30.4%
O=C(c1cc(Cc2n[nH]c(=O)c3ccccc23)ccc1F)N1CCN(C(=O)C2CC2)CC1 + Nc1ccc(C#CCN(C(=O)Cc2ncc(C(F)(F)F)cc2C(F)(F)F)c2ccc(F)cc2)nn1,IC50,second compound 0.0316 µM,> 10 µM
same,IC50,second compound 0.1 µM,> 10 µM
same,IC50,second compound 0.316 µM,> 10 µM
same,IC50,second compound 1 µM,> 10 µM
same,IC50,second compound 3.16 µM,> 10 µM
same,IC50,second compound 10 µM,> 10 µM
same,"viability, T/C",[1],98.2%
same,"viability, T/C",[2],73.7%
same,"viability, T/C",[3],93.5%
same,"viability, T/C",[4],90%
same,"viability, T/C",[5],92.1%
same,"viability, T/C",[6],75.4%
same,"viability, T/C",[7],90.1%
same,"viability, T/C",[8],93.5%
same,"viability, T/C",[9],86.9%
same,"viability, T/C",[10],91.3%
same,"viability, T/C",[11],82.7%
same,"viability, T/C",[12],67.1%
same,"viability, T/C",[13],102%
same,"viability, T/C",[14],98%
same,"viability, T/C",[15],84%
same,"viability, T/C",[16],84.1%
same,"viability, T/C",[17],90.7%
same,"viability, T/C",[18],80.2%
same,"viability, T/C",[19],93.1%
same,"viability, T/C",[20],93.9%
same,"viability, T/C",[21],84.3%
same,"viability, T/C",[22],88.9%
same,"viability, T/C",[23],84.2%
same,"viability, T/C",[24],76.8%
same,"viability, T/C",[25],92.7%
same,"viability, T/C",[26],93.7%
same,"viability, T/C",[27],85.8%
same,"viability, T/C",[28],92.2%
same,"viability, T/C",[29],80.6%
same,"viability, T/C",[30],82.6%
same,"viability, T/C",[31],80.7%
same,"viability, T/C",[32],85.5%
same,"viability, T/C",[33],88%
same,"viability, T/C",[34],92.7%
same,"viability, T/C",[35],81.3%
same,"viability, T/C",[36],68.7%
